Several values for one entry are separate records, joined by “and”; a condition that tells them apart may be missing. Identical values can stand only once. Like-named read-outs stand apart in the source and are kept apart here.
Columns and labels:
[1] = system: MRSA strain NRS70; test: MIC determination (broth microdilution), oxacillin with or without kinase inhibitor; assay type: cell-based, Staphylococcus aureus; details: for MIC of oxacillin in the presence of compound: compound at 7 μg/mL
From the text: (§1) We evaluated the new imidazole analogues for their ability to lower the MIC of oxacillin against MRSA in the same manner as for the kinase inhibitor library. In addition to MRSA252, we expanded our investigation to include strains NRS123 and NRS70, both of which have 95% sequence identities between their BlaR1 proteins and that of NRS128, with the bla operon encoded on plasmids (pMW2 and pN315, respectively).
(§2) Minimal-inhibitory concentration (MIC) determination. Determination of MICs was done by the microdilution method cation-adjusted in Mueller-Hinton II Broth (CAMHB II, BBL) in accordance with the protocols of CLSI (Performance Standards for Antimicrobial Susceptibility Testing; Twenty-Second Informational Supplement. CLSI document M100-S22. Clinical and Laboratory Standards Institute Wayne, Pa.). A final bacterial inoculum of 5×10^5 CFU/mL was used, and the results were recorded after incubation for 16-20 h at 37° C.

[2] = system: MRSA strain NRS123; test: as above; assay type: cell-based, Staphylococcus aureus; details: for MIC of oxacillin in the presence of compound: compound at 7 μg/mL
From the text: as §1, §2

[3] = system: S. aureus MRSA252; test: as above; assay type: cell-based, Staphylococcus aureus; details: for MIC: Staphylococcus aureus; for MIC of oxacillin in the presence of compound: compound at 7 μg/mL
Description: A protein-kinase inhibitor library of 80 known compounds was tested in a 96-well format against strain MRSA252 for the screening. We first determined MICs (broth microdilution method) (CLSI, Performance Standards for Antimicrobial Susceptibility Testing; Twenty-Second Informational Supplement. CLSI document M100-S22. Clinical and Laboratory Standards Institute; Wayne, Pa.) for all the inhibitors in the library, in case some of them might have antibacterial properties of their own, which could complicate the analysis.
This rapid initial screening identified compound 1 as meeting the selection criteria of lowering the MIC for oxacillin, which was followed up by the actual evaluation of the MIC of oxacillin against S. aureus MRSA252 in the presence of the inhibitor.
as §2

[4] = system: BlaR1 phosphorylation; test: BlaR1 phosphorylation by western blot in CBAP-induced NRS128 whole-cell extracts; assay type: cell-based, Staphylococcus aureus NRS128; details: NRS128 induced with 10 μg/mL CBAP, compound at 7 or 17 μg/mL
Description: Next, we tested the effect of exposure of CBAP-induced NRS128 to this kinase inhibitor. Cultures were induced with 10 μg/mL CBAP in the presence of 0, 7, or 17 μg/mL of compound 1. Whole-cell extracts of these bacteria were analyzed for BlaR1 phosphorylation by western blot using anti-Phos-Ser and anti-Phos-Tyr antibodies. Compound 1 inhibited both the phosphotyrosine and phosphoserine kinase activities by as much as 70-90% (FIG. 4).
Detection of BlaR1 phosphorylation in presence of antibiotic. As we had disclosed in a recent publication on fragmentation of BlaR1 during the course of induction, we detect a cleavage at position S283-F284 of BlaR1 (Llarrull et al., J. Biol. Chem. 2011, 286, 38148-38158). This proteolytic cleavage cuts the BlaR1 protein into two fragments of roughly equal sizes (approx. 30-31 kDa). […]
Extracts were prepared as previously described in buffer containing 50 mM Tris pH 7.5, 150 mM NaCl, 2 mM EDTA, 0.55% SDS, 2.5% Triton X-100, and Halt Protease and Phosphatase Inhibitor Cocktail (Thermo Scientific, Waltham, Mass., U.S.A.) and analyzed by Western blot using antibodies against phosphothreonine, phosphotyrosine, and phosphoserine. A ˜30 kDa protein band was detected by the phosphotyrosine and phosphoserine specific antibodies only in cell extracts of S. aureus cells grown with CBAP (FIG. 2). This band was not detected by the phosphothreonine antibody. […]

[5] = biological target: T1, Stk1 protein kinase (Staphylococcus aureus, UniProt A0ABF7PGK0); test: In vitro phosphorylation assay: Stk1 autophosphorylation; assay type: biochemical, S. aureus strain NRS70; details: IC50, inhibition of Stk1 autophosphorylation, [γ-32P]-ATP 20 μM
T1 sequence (A0ABF7PGK0 entry or part of it): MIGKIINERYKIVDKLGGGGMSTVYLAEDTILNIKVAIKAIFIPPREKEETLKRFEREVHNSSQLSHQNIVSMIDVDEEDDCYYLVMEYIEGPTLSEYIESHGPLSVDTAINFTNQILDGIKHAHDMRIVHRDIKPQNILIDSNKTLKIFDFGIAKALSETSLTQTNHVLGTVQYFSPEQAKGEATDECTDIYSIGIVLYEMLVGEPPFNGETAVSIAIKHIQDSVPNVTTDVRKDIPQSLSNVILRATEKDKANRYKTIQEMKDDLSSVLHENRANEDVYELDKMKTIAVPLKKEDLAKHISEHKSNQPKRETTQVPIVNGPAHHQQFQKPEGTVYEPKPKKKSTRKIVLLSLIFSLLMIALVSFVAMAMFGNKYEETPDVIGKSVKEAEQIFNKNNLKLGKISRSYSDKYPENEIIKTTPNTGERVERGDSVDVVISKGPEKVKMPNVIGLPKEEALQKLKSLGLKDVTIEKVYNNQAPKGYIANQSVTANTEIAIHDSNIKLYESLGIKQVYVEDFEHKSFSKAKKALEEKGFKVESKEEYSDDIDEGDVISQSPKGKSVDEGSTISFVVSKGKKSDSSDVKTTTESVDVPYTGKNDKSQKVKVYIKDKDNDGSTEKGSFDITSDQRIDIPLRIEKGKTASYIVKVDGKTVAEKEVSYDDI
From the text: (§3) Cloning, expression, and purification of S. aureus Stk1 protein kinase. The stk1 gene for Stk1 protein kinase (SA1063 in S. aureus NRS70) is conserved in all known genomic sequences for S. aureus (Beltramini et al., Infect. Immun. 77, 1406-1416 (2009); Débarbouillé et al., J. Bacteriol. 191, 4070-4081 (2009); Didier et al., FEMS Microbiol. Lett. 306, 30-36 (2010)). We PCR-amplified the DNA fragment corresponding to the entire coding sequences of stk1 from S. aureus strain NRS70 chromosomal DNA with primers STK1fw (5′-[…] […]-3′) and STK1rev (5′-[…] […]-3′). The amplified DNA fragments were then digested with NdeI and XhoI restriction enzymes and cloned into pET28a. After verification of the inserts by DNA sequencing on both strands, the resulting plasmid (termed pETstk1) was introduced into E. coli strain BL21(DE3) for protein expression.
(§4) For purification of Stk1, 5 mL of an overnight culture of BL21(DE3) harboring pETstk1 was inoculated into 500 mL fresh LB medium and grown at 37° C. until the OD600 reached 0.8. Isopropyl β-D-1-thiogalactopyranoside (IPTG) was then added to the culture to a final concentration of 0.5 mM and the culture was shaken at 15° C. overnight. The culture was then centrifuged at 5000 rpm at 4° C. for 15 min. The pellet was resuspended in 20 mL of lysis buffer (25 mM HEPES, 500 mM NaCl, 10 mM imidazole, pH 7.4). After sonication, the lysate was centrifuged at 18,000 g at 4° C. for 45 min. The resulting supernatant containing the His-tagged Stk1 was loaded onto a 5-mL Hitrap Chelating column (GE Healthcare), followed by elution with a linear gradient of imidazole (0-500 mM) in lysis buffer. The fractions containing Stk1 were pooled, concentrated and the buffer was exchanged to 25 mM HEPES, pH 7.4. The resulting sample was then subjected to Q anion-exchange chromatography and eluted with a linear gradient of NaCl (0-1 M). Protein purity was ascertained by sodium dodecyl sulfate polyacrylamide gel electrophoresis (SDS-PAGE) (FIG. 7).
(§5) In vitro phosphorylation assay. […] Band intensities were quantified using GelQuant software. […]

[6] = system: BlaR1 phosphorylation; test: BlaR1 phosphorylation by western blot in CBAP-induced NRS70 whole-cell extracts; assay type: cell-based, Staphylococcus aureus NRS70; details: for tyrosine phosphorylation of the BlaR1 fragment: NRS70, CBAP-induced, 7 μg/mL inhibitor; for serine phosphorylation of BlaR1 fragment: NRS70, even at 17 μg/mL
Description: We then evaluated the ability of compounds 10, 11 or 12 to inhibit tyrosine phosphorylation of BlaR1 in NRS70 extracts. The bacteria were grown under the conditions described earlier for NRS128, induced by CBAP in the absence and presence of 0.7 μg/mL or 7 μg/mL compounds 10, 11 or 12, and analyzed by western blot using antibody against phosphotyrosine (FIG. 5a). […] However, serine phosphorylation was not inhibited by any of these compounds, even at 17 μg/mL (FIG. 6), in contrast to the case of 1, which had inhibited both. This provides evidence for the critical nature of tyrosine phosphorylation for regulation of BlaR1.
To overcome this, we subsequently cleared all S. aureus extracts of Protein A and other immunoglobulin-binding proteins by incubation with IgG Sepharose (GE Healthcare, Little Chalfont, UK) for 1-2 h at room temperature with gentle agitation. After a brief centrifugation, the total protein in the supernatant was quantified by a BCA assay and 20 μg was loaded onto an 11% SDS-PAGE gel. Following electrophoresis, samples were transferred to a nitrocellulose membrane in a 10 mM CAPS (pH 11) buffer containing 10% methanol. Membranes were blocked in 3% BSA for phosphoserine blots or Blotto (3% BSA, 3% milk in TBS) for phosphotyrosine blots. HRP-conjugated primary antibody was applied in either 1% BSA/TBST (phosphoserine, Abcam, Cambridge, UK) or 1.1% milk/TBST (phosphotyrosine, 4G10 Platinum, EMD Millipore, Billerica, Mass., U.S.A.). Phosphoserine blots were developed with Pierce ECL Substrate (Thermo Scientific) and phosphotyrosine blots were developed with SuperSignal West Dura Extended Duration Substrate (Thermo Scientific), then exposed to X-ray film for an appropriate amount of time (30-600 s).

[7] = biological target: T1, Stk1 protein kinase; test: In vitro phosphorylation assay: phosphorylation of myelin basic protein (MBP) by Stk1; assay type: biochemical, S. aureus strain NRS70; details: IC50, inhibition of MBP phosphorylation by Stk1, [γ-32P]-ATP 20 μM
From the text: as §3, §4, §5

[8] = Staphylococcus aureus, no inhibitor

SMILES: Cc1onc(-c2ccccc2)c1C(=O)N[C@@H]1C(=O)N2[C@@H]1SC(C)(C)[C@@H]2C(=O)O [oxacillin, reference compound]
- MIC [1, 8]: 32 µg/mL
- MIC [2, 8]: 16 µg/mL
- MIC ([3]; no inhibitor, read-out: MIC of oxacillin): 256 µg/mL

SMILES: Oc1ccc(-c2nc(-c3ccc(F)cc3)c(-c3ccncc3)[nH]2)cc1 [Compound 1, reference compound]
- inhibition of phosphoserine kinase activity (BlaR1 phosphorylation) ([4]; anti-Phos-Ser western blot): 70-90%
- inhibition of phosphotyrosine kinase activity (BlaR1 phosphorylation) ([4]; anti-Phos-Tyr western blot): 70-90%
- MIC ([3]; without oxacillin, read-out: MIC of the kinase inhibitor alone): ≥ 64 µg/mL
- decrease in the MIC of oxacillin ([3]; inhibitor at 7 μg/mL): four-fold decrease

SMILES: CC(C)(C)c1ccc(-c2nc(-c3ccc(F)cc3)c(-c3ccncc3)[nH]2)cc1 [Compound 10, 2-(4-tert-Butylphenyl)-4-(4-fluorophenyl)-5-(4-pyridyl)imidazole]
- IC50 [5]: 8.35 µM and 8.8 µM
- MIC of oxacillin in the presence of compound [1]: 4 µg/mL
- MIC of oxacillin in the presence of compound [2]: 8 µg/mL
- tyrosine phosphorylation of the BlaR1 fragment [6]: almost completely abolished
- serine phosphorylation of BlaR1 fragment [6]: not inhibited
- MIC of oxacillin in the presence of compound [3]: 2 µg/mL
- IC50 [7]: 5.65 µM and 6.1 µM

SMILES: CC(C)Cc1ccc(-c2nc(-c3ccc(F)cc3)c(-c3ccncc3)[nH]2)cc1 [Compound 12, 2-(4-iso-Butylphenyl)-4-(4-fluorophenyl)-5-(4-pyridyl)imidazole]
- IC50 [5]: 16.2 µM and 17 µM and 18 µM
- MIC of oxacillin in the presence of compound [1]: 0.5 µg/mL
- MIC of oxacillin in the presence of compound [2]: 4 µg/mL
- tyrosine phosphorylation of the BlaR1 fragment [6]: almost completely abolished
- serine phosphorylation of BlaR1 fragment [6]: not inhibited
- MIC of oxacillin in the presence of compound [3]: 4 µg/mL
- IC50 [7]: 16.2 µM and 15.3 µM

SMILES: CCc1ccc(-c2nc(-c3ccc(F)cc3)c(-c3ccncc3)[nH]2)cc1 [Compound 11, 2-(4-Ethylphenyl)-4-(4-fluorophenyl)-5-(4-pyridyl)imidazole]
- IC50 [5]: 14.6 µM and 14.9 µM and 14.7 µM
- MIC of oxacillin in the presence of compound [1]: 0.5 µg/mL
- MIC of oxacillin in the presence of compound [2]: 4 µg/mL
- tyrosine phosphorylation of the BlaR1 fragment [6]: almost completely abolished
- serine phosphorylation of BlaR1 fragment [6]: not inhibited
- MIC of oxacillin in the presence of compound [3]: 16 µg/mL
- IC50 [7]: 11.6 µM and 12.2 µM and 12 µM
